How the values were obtained:
human TAS2R7 [1] = molecular target: T1, human TAS2R7 (Homo sapiens, UniProt Q9NYW3, L71P); assay: Fluo-4 calcium assay, HEK293T/Gα16-gustducin44 cells transiently expressing TAS2R7; type: cell-based; conditions: for TAS2R7 ΔF/F0: transiently transfected cells
T1 construct: RSS tag (first 45 amino acids of rat somatostatin receptor subtype 3, membrane export tag) (N); expressed in transfected cells
T1 sequence (Q9NYW3 with tags, fused parts or gaps L71P): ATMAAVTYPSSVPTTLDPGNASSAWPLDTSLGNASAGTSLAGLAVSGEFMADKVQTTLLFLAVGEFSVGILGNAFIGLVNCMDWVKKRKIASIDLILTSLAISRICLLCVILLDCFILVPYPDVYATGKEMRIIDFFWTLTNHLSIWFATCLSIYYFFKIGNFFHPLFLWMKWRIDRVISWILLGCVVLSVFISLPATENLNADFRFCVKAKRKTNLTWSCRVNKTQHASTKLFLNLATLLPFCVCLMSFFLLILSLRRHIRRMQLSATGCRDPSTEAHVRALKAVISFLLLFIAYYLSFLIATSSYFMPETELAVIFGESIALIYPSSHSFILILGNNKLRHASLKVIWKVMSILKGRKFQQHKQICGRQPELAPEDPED
Method: On day 0, the HEK293T/Gα16-gustducin 44 cells were plated in 96-well black wall, clear-bottom plates at a density of 15,000 cells per well and grown overnight in growth media (DMEM with 10% (v/v) heat-inactivated fetal bovine serum, 2 mM L-glutamine, 100 units/ml penicillin, 100 μg/ml streptomycin).
On day 1, the media was changed to an antibiotic-free and serum-free DMEM. The cells were transfected with TAS2R7 using Lipofectamine 2000 (Invitrogen).
Per well of a 96-well plate, 150 ng of vector DNA (TAS2R7 expression vectors from example 1) was diluted in 12.5 μl of DMEM. In a second tube, 0.3 μl of Lipofectamine 2000 was diluted in 12.5 μl of DMEM and incubated for 5 min at room temperature. After the 5 min, both solutions were mixed and incubated for 20 min at RT. The growth medium in the plate was exchanged for 50 μl of DMEM and 25 μl of the lipofectamine/DNA mixture was incubated on the cells for 3-4 hours at 37° in a humidified atmosphere. This mixture was then replaced with an antibiotic-free, serum-containing DMEM.
24 hours post transfection, the cells were used in the Fluo-4 Calcium Assay as described in Example 3.
(§1) At day 0, the HEK293T cell line expressing Gα16-gustducin44 and a TAS2R7 bitter taste receptor formed as described in examples 2a or 2b was seeded in antibiotic-free growth medium (standard DMEM with 10% (v/v) heat-inactivated fetal bovine serum, 2 mM L-glutamine […]) into black wall/clear bottom 96-well plates, coated with poly(ethylenimine) (0.005% v/v) at a concentration of 15,000 cells per well and incubated for 48 hours in humidified atmosphere (37° C., 5% CO2).
(§2) At the time of the assay, the growth medium was discarded and the cells were in humidified atmosphere (37° C., 5% CO2) for 1 hour with […] of loading buffer consisting of 1.5 μM Fluo-4 AM and 2.5 mM probenecid (Sigma-Aldrich, St. Louis, Mo., U.S.) in DMEM.
(§3) Afterwards, the 96-well plate was washed 5 times with 100 μl of assay buffer (130 mM NaCl, 5 mM KCl, 10 mM HEPES, 2 mM CaCl2, and 5 mM dextrose, pH 7.4) per well, using an automated plate washer (BioTek). The plate was further incubated for 30 minutes at room temperature in the dark to allow for complete de-esterification of the Fluo-4. Afterwards the plate was washed 5 times with 100 μl of assay buffer per well, and reconstituted with 100 μl of assay buffer per well.
(§4) For assay reading the plate was placed in a Fluorometric Imaging Plate Reader (FLIPR) (FLIPR-TETRA™, Molecular Devices, Sunnyvale, Calif., US), and receptor activation was initiated by addition of 20 microliter of a tenfold concentrated agonist stock solution (to give the desired agonist end concentration when added to the 180 microliter assay buffer volume), which was prepared in assay buffer.
(§5) Fluorescence was continuously monitored for 20 seconds to give a signal baseline (averaged to give F0) prior to agonist addition and for 120 seconds after agonist addition. The change in signal divided by F0 gives ΔF/F0 indicated in the table, with ΔF being the maximum signal occurring within the 120 seconds minus the minimum signal (occurring within the 120 seconds after agonist addition).
(§6) The obtained calcium signals were corrected for the response of cells expressing only the G-Protein α subunit (Gα16-gustducin44) and normalized to the fluorescence of cells prior to the stimulus using ΔF/F0 (Fmax−Fmin/F0).
The intracellular calcium response following the addition of L-menthol was determined in a HEK293T cell line stably expressing Gα16-gustducin44 and transiently expressing TAS2R7, formed as described in example 2a.

TAS2R7 = molecular target: T2, TAS2R7 (Homo sapiens, UniProt Q9NYW3); conditions: known from the art; cited from earlier work
T2 sequence (Q9NYW3 1-318): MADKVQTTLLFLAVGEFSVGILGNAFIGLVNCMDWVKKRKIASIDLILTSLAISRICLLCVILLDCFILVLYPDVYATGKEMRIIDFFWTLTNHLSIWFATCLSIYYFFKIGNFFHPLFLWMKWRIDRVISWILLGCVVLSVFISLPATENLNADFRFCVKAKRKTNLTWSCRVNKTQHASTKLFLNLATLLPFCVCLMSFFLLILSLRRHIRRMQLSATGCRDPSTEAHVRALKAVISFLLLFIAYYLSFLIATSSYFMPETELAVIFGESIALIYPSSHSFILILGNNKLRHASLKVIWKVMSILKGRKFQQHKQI

human TAS2R7 [2] = molecular target: T1, human TAS2R7; assay: Fluo-4 calcium assay, HEK293T/Gα16-gustducin44 cell line stably expressing TAS2R7; type: cell-based; conditions: stable cell line
Method: Cell lines that stably expresses TAS2R7 was generated by transfecting the pcDNA3.1Zeo-TAS2R7 construct into HEK293T/Gα16-gustducin 44 cells (formed as described in example 1). The host cell line HEK-293T is commercially available from the American Tissue Culture Collection (ATCC), ATCC®#CRL-11268.
TAS2R7 expressing cells were identified by their response to 2.6 mM L-menthol, which was determined via automated fluorimetric imaging on the FLIPR-TETRA™ (Molecular Devices, Sunnyvale, Calif., U.S.) as described in example 3. One clone was selected, resulting in the HEK293T/Gα16-gustducin 444/TAS2R7 cell line.
as §1, §2, §3, §4, §5
All data was collected from at least two independent experiments each carried out in triplicate.
A concentration-response analysis was performed and EC50 values were calculated by nonlinear regression using the function f(x)=(a−d)/(1+(x/C)^nh)+d; with a=minimum signal, d=maximum signal, nh=hill coefficient, C=EC50, and x=agonist concentration. EC50 is the molar concentration of an agonist which produces 50% of the maximum possible effective response for that agonist.
as §6
To confirm that the cell line formed in example 2b stably expresses the bitter taste receptor TAS2R7, a concentration-response curve for L-menthol was generated. […] The standard deviation (+/−STD) is also indicated.
Each sample (receptors as well as controls) contained a final concentration of 0.02% DMSO to allow for comparability of all examples below.

[3] = test system: more than 15 of the other human TAS2Rs; assay: Activation test on other human TAS2Rs; type: cell-based; conditions: more than 15 other human TAS2Rs
[4] = test system: HEK293T Gα16gustducin44 cells (that do not express TAS2R7); assay: Fluo-4 calcium assay, negative control HEK293T Gα16gustducin44 cells that do not express TAS2R7; type: cell-based, human; conditions: cells without TAS2R7

For `CC1CC[C@H](C(C)C)[C@@H](O)C1` (stereo partly drawn) [D-menthol], the “activation of TAS2R7” value (human TAS2R7 [1]; similar results as for L-menthol) was “shown to activate TAS2R7”.

For `CCN(CC)CCCC(C)Nc1ccnc2cc(Cl)ccc12` (centres unmarked) [chloroquine], the “response of TAS2R7” value (TAS2R7) is given as “known to respond”.

For `C=C[C@H]1C[N@@]2CC[C@H]1C[C@H]2[C@H](O)c1ccnc2ccc(OC)cc12` [quinine], the “response of TAS2R7” value (TAS2R7) is listed as “known to respond”.

With `CC(C)[C@@H]1CC[C@@H](C)C[C@H]1O` [L-menthol] the “TAS2R7 ΔF/F0” value (human TAS2R7 [2]; L-menthol 0.01 mM) was 0.09, the “TAS2R7 ΔF/F0” value (human TAS2R7 [2]; L-menthol 0.02 mM) was 0.09 and the “TAS2R7 ΔF/F0” value (human TAS2R7 [2]; L-menthol 0.04 mM) was 0.13. The “TAS2R7 ΔF/F0” value (human TAS2R7 [2]; L-menthol 0.08 mM) was 0.12, the “TAS2R7 ΔF/F0” value (human TAS2R7 [2]; L-menthol 0.16 mM) was 0.23 and the “TAS2R7 ΔF/F0” value (human TAS2R7 [2]; L-menthol 0.33 mM) was 0.61. The “TAS2R7 ΔF/F0” value (human TAS2R7 [2]; L-menthol 0.65 mM) was 1.03, the “TAS2R7 ΔF/F0” value (human TAS2R7 [2]; L-menthol 1.30 mM) was 1.16 and the “TAS2R7 ΔF/F0” value (human TAS2R7 [2]; L-menthol 2.60 mM) was 0.92. The “activation of TAS2R7” value (human TAS2R7 [2]) was “activated”, the EC50 (human TAS2R7 [2]; nonlinear regression of concentration-response, read-out: calculated EC50 value for TAS2R7) was 310 µM and the “activation of other human TAS2Rs” value [3] was “not to be activated”. The “Neg. Control ΔF/F0” value ([4]; L-menthol 0.01 mM) was 0.09, the “Neg. Control ΔF/F0” value ([4]; L-menthol 0.02 mM) was 0.08 and the “Neg. Control ΔF/F0” value ([4]; L-menthol 0.04 mM) was 0.08. For the same molecule, the “Neg. Control ΔF/F0” value ([4]; L-menthol 0.08 mM) was 0.10, the “Neg. Control ΔF/F0” value ([4]; L-menthol 0.16 mM) was 0.15 and the “Neg. Control ΔF/F0” value ([4]; L-menthol 0.33 mM) was 0.34. For the same molecule, the “Neg. Control ΔF/F0” value ([4]; L-menthol 0.65 mM) was 0.41, the “Neg. Control ΔF/F0” value ([4]; L-menthol 1.30 mM) was 0.53 and the “Neg. Control ΔF/F0” value ([4]; L-menthol 2.60 mM) was 0.65. The “change above the background signal in negative control” value [4] was “did not show a significant change above the background signal”, the “TAS2R7 ΔF/F0” value (human TAS2R7 [1]; L-menthol 0.01 mM) was 0.09 and the “TAS2R7 ΔF/F0” value (human TAS2R7 [1]; L-menthol 0.02 mM) was 0.08. The “TAS2R7 ΔF/F0” value (human TAS2R7 [1]; L-menthol 0.04 mM) was 0.08, the “TAS2R7 ΔF/F0” value (human TAS2R7 [1]; L-menthol 0.08 mM) was 0.10 and the “TAS2R7 ΔF/F0” value (human TAS2R7 [1]; L-menthol 0.16 mM) was 0.15. The “TAS2R7 ΔF/F0” value (human TAS2R7 [1]; L-menthol 0.33 mM) was 0.34, the “TAS2R7 ΔF/F0” value (human TAS2R7 [1]; L-menthol 0.65 mM) was 0.41 and the “TAS2R7 ΔF/F0” value (human TAS2R7 [1]; L-menthol 1.30 mM) was 0.53. For the same molecule, the “TAS2R7 ΔF/F0” value (human TAS2R7 [1]; L-menthol 2.60 mM) was 0.65 and the “calcium signalling upon addition” value (human TAS2R7 [1]; cells transiently expressing human TAS2R7) was “significant concentration-dependent increase”.

From patent US8557530B2, “Use of a TAS2R7 nucleic acid sequence to identify modulators” (Givaudan SA, priority 2008, dated 2013)
